# Laboratory results: patent US20210040118A1, “IMMUNOMODULATORS, COMPOSITIONS AND METHODS THEREOF” (BETTA PHARMACEUTICALS CO., LTD, priority 2018, published 2021)
# pIC50: −log10 of the molar value.
# Molecular target: T1, PD-1/PD-L1 (Homo sapiens, UniProt Q9NZQ7)
# T1 construct: Recombinant human PD-L1 protein (19-238) with a His-tag at the C-terminus; purchased AcroBiosystems PD1-H5229 (PD-L1); PD1-H5257 (PD-1)
# Experiment: PD-1/PD-L1 homogenous time-resolved fluorescence (HTRF) binding assay
# Conditions: recombinant human PD-L1 (19-238) His-tag / human PD-1 (25-167) Fc tag, class symbols
# How it was run: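 Inhibitors were preincubated 40 min at 25°C with 10 nM His-tagged human PD-L1 (19-238) and 3 nM Fc-tagged human PD-1 (25-167) in PBS pH 7.4 containing Tween-20, BSA and 1% DMSO. After 60 min with europium anti-human IgG and anti-His-APC, 665/620 nm signal ratio gave IC50 via percent-control fit.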
# T1 sequence (Q9NZQ7 19-238): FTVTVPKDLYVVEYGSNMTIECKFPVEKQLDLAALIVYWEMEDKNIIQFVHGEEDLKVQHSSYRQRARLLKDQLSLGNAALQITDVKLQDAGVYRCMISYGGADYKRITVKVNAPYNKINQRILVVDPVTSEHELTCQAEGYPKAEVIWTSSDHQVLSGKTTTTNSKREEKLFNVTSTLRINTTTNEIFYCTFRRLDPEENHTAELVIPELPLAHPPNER
row,pIC50,Structure (SMILES)
1,> 7.60,"Cc1c(NC(=O)c2nc3c(s2)CN(CC(=O)O)CC3)cccc1-c1cccc(NC(=O)c2nc3c(s2)CN(CC(=O)O)CC3)c1C [Example 4, 2,2′-((((2,2′-dimethyl-[1,1′-biphenyl]-3,3′-diyl)bis(azanediyl))bis(carbonyl))bis(6,7-dihydrothiazolo[5,4-c]pyridine-2,5(4H)-diyl))diacetic acid]"
2,> 7.60,"O=C(c1nc2c(s1)CN(C1COC1)CC2)N1CCc2c(-c3cccc4c3CCN4C(=O)c3nc4c(s3)CN(C3COC3)CC4)cccc21 [Example 88, [4,4′-biindoline]-1,1′-diylbis((5-(oxetan-3-yl)-4,5,6,7-tetrahydrothiazolo[5,4-c]pyridin-2-yl)methanone)]"
3,> 7.60,"COC(=O)Cn1cc(CN2CCc3nc(C(=O)N4CCc5c(-c6cccc7c6CCN7C(=O)c6nc7c(s6)CN(Cc6cn(CC(=O)OC)nn6)CC7)cccc54)sc3C2)nn1 [Example 135, dimethyl 2,2′-(((([4,4′-biindoline]-1,1′-dicarbonyl)bis(6,7-dihydrothiazolo[5,4-c]pyridine-2,5(4H)-diyl))bis(methylene))bis(1H-1,2,3-triazole-4,1-diyl))diacetate]"
4,7.00 to 7.60,"Cc1c(NC(=O)c2nnc(CN)o2)cccc1-c1cccc(NC(=O)c2nnc(CN)o2)c1C [Example 18, N,N′-(2,2′-dimethyl-[1,1′-biphenyl]-3,3′-diyl)bis(5-(aminomethyl)-1,3,4-oxadiazole-2-carboxamide)]"
5,> 7.60,"Cc1c(NC(=O)c2nc3c(s2)CNCC3)cc(F)cc1-c1cccc2c1CCN2C(=O)c1nc2c(s1)CNCC2 [Example 95, N-(5-fluoro-2-methyl-3-(1-(4,5,6,7-tetrahydrothiazolo[5,4-c]pyridine-2-carbonyl)indolin-4-yl)phenyl)-4,5,6,7-tetrahydrothiazolo[5,4-c]pyridine-2-carboxamide]"
6,> 7.60,"Cc1c(NC(=O)c2nc3c(s2)CN(CC#N)CC3)cccc1-c1cccc(NC(=O)c2nc3c(s2)CN(CC#N)CC3)c1C [Example 80, N,N′-(2,2′-dimethyl-[1,1′-biphenyl]-3,3′-diyl)bis(5-(cyanomethyl)-4,5,6,7-tetrahydrothiazolo[5,4-c]pyridine-2-carboxamide)]"
7,> 7.60,"CN1CCc2nc(C(=O)N3CCc4c(-c5cccc6c5CCN6C(=O)c5nc6c(s5)CN(C)CC6)cccc43)sc2C1 [Example 83, [4,4′-biindoline]-1,1′-diylbis((5-methyl-4,5,6,7-tetrahydrothiazolo[5,4-c]pyridin-2-yl)methanone)]"
8,> 7.60,"CN(C)Cc1cnc(C(=O)N2CCc3c(-c4cccc5c4CCN5C(=O)c4ncc(CN(C)C)s4)cccc32)s1 [Example 112, [4,4′-biindoline]-1,1′-diylbis((5-((dimethylamino)methyl)thiazol-2-yl)methanone)]"
9,> 7.60,"NC(=O)NCCN1CCc2nc(C(=O)N3CCc4c(-c5cccc6c5CCN6C(=O)c5nc6c(s5)CN(CCNC(N)=O)CC6)cccc43)sc2C1 [Example 134, 1,1′-((([4,4′-biindoline]-1,1′-dicarbonyl)bis(6,7-dihydrothiazolo[5,4-c]pyridine-2,5(4H)-diyl))bis(ethane-2,1-diyl))diurea]"
10,> 7.60,"O=C(Nc1cccc(-c2cccc(NC(=O)c3ncc(CNCCO)s3)c2Cl)c1Cl)c1ncc(CNCCO)s1 [Example 66, N,N′-(2,2′-dichloro-[1,1′-biphenyl]-3,3′-diyl)bis(5-(((2-hydroxyethyl)amino)methyl)thiazole-2-carboxamide)]"
11,> 7.60,"O=C(Nc1cccc(-c2cccc(NC(=O)c3ncc(CNCC(F)(F)F)s3)c2Cl)c1Cl)c1ncc(CNCC(F)(F)F)s1 [Example 68, N,N′-(2,2′-dichloro-[1,1′-biphenyl]-3,3′-diyl)bis(5-(((2,2,2-trifluoroethyl)amino)methyl)thiazole-2-carboxamide)]"
12,< 6.70,"Cc1c(-c2cccc(N(C)Cc3nc4ccc(N)cc4s3)c2C)cccc1N(C)Cc1nc2c(s1)CNCC2 [Example 22, N3-((6-aminobenzo[d]thiazol-2-yl)methyl)-N3,N3′,2,2′-tetramethyl-N3′-((4,5,6,7-tetrahydrothiazolo[5,4-c]pyridin-2-yl)methyl)-[1,1′-biphenyl]-3,3′-diamine]"
13,> 7.60,"CCOC(=O)CN1CCc2nc(C(=O)Nc3cccc(-c4cccc(NC(=O)c5ccc6c(n5)CCNC6)c4C)c3C)ccc2C1 [Example 170, ethyl 2-(2-((2,2′-dimethyl-3′-(5,6,7,8-tetrahydro-1,6-naphthyridine-2-carboxamido)-[1,1′-biphenyl]-3-yl)carbamoyl)-7,8-dihydro-1,6-naphthyridin-6(5H)-yl)acetate]"
14,> 7.60,"CNC(=O)CNCc1cnc2c(Nc3cccc(-c4cccc(Nc5nccc6cc(CNCC(=O)N(C)CCO)cnc56)c4C)c3C)nccc2c1 [Example 147, 2-(((8-((2,2′-dimethyl-3′-((3-(((2-(methylamino)-2-oxoethyl)amino)methyl)-1,7-naphthyridin-8-yl)amino)-[1,1′-biphenyl]-3-yl)amino)-1,7-naphthyridin-3-yl)methyl)amino)-N-(2-hydroxyethyl)-N-methylacetamide]"
15,> 7.60,"Cc1c(NC(=O)c2nc3c(s2)CN(C(C)CO)CC3)cccc1-c1cccc(NC(=O)c2nc3c(s2)CN(C(C)CO)CC3)c1C (centres unmarked) [Example 45, N,N′-(2,2′-dimethyl-[1,1′-biphenyl]-3,3′-diyl)bis(5-(1-hydroxypropan-2-yl)-4,5,6,7-tetrahydrothiazolo[5,4-c]pyridine-2-carboxamide)]"
16,> 7.60,"Cc1c(NC(=O)c2ccc3c(n2)CCNC3)cccc1-c1cccc(NC(=O)c2ccc3c(n2)CCN(CCO)C3)c1C [Example 186, N-(2,2′-dimethyl-3′-(5,6,7,8-tetrahydro-1,6-naphthyridine-2-carboxamido)-[1,1′-biphenyl]-3-yl)-6-(2-hydroxyethyl)-5,6,7,8-tetrahydro-1,6-naphthyridine-2-carboxamide]"
17,> 7.60,"O=C(c1ncc(CNCCO)s1)N1CCc2c(-c3cccc4c3CCN4C(=O)c3ncc(CNCCO)s3)cccc21 [Example 70, [4,4′-biindoline]-1,1′-diylbis((5-(((2-hydroxyethyl)amino)methyl)thiazol-2-yl)methanone)]"
18,> 7.60,"CC(C)[C@H](NCc1cnc(C(=O)Nc2cccc(-c3cccc(NC(=O)c4ncc(CN[C@H](C(=O)O)C(C)C)s4)c3Cl)c2Cl)s1)C(=O)O [Example 69, ((2-((3′-(5-((((S)-1-carboxy-2-methylpropyl)amino)methyl)thiazole-2-carboxamido)-2,2′-dichloro-[1,1′-biphenyl]-3-yl)carbamoyl)thiazol-5-yl)methyl)-L-valine]"
19,> 7.60,"Cc1nc(C(=O)N2CCc3c(-c4cccc(NC(=O)c5ncc(CN(C)CCO)s5)c4)cccc32)sc1CN(C)C [Example 114, N-(3-(1-(5-((dimethylamino)methyl)-4-methylthiazole-2-carbonyl)indolin-4-yl)phenyl)-5-(((2-hydroxyethyl)(methyl)amino)methyl)thiazole-2-carboxamide]"
20,> 7.60,"Cc1c(NC(=O)c2ncc3c(n2)CCNC3)cccc1-c1cccc(NC(=O)c2ncc3c(n2)CCNC3)c1C [Example 188, N,N′-(2,2′-dimethyl-[1,1′-biphenyl]-3,3′-diyl)bis(5,6,7,8-tetrahydropyrido[4,3-d]pyrimidine-2-carboxamide)]"
